Assay: Stability of the solid state form under stress conditions (high temperature and relative humidity)
Format: physicochemical
Conditions: stressed conditions, e.g. high temperature and relative humidity; solid to solid phase / polymorph transformation
Source text: Pharmaceutical molecules may display solid to solid phase transformations and transformations between polymorphs; which may detected by exposure of the solid state form to stress conditions of e.g., high temperature and high relative humidity.

Row | SMILES | thermodynamic and chemical stability of the solid state form
1 | CCc1cc(/C(C)=N/OCc2ccc(C3CCCCC3)c(C(F)(F)F)c2)ccc1CN1CC(C(=O)O)C1.CCc1cc(/C(C)=N/OCc2ccc(C3CCCCC3)c(C(F)(F)F)c2)ccc1CN1CC(C(=O)O)C1.O=C(O)/C=C/C(=O)O [Crystalline Siponimod fumaric acid] | thermodynamically stable and steady under stressed conditions
2 | CCc1cc(/C(C)=N/OCc2ccc(C3CCCCC3)c(C(F)(F)F)c2)ccc1CN1CC(C(=O)O)C1.CCc1cc(/C(C)=N/OCc2ccc(C3CCCCC3)c(C(F)(F)F)c2)ccc1CN1CC(C(=O)O)C1.O=C(O)/C=C/C(=O)O [crystalline Form 7 of Siponimod fumaric acid] | thermodynamically and chemical stable
